Patent US20260285850A1, “SUBSTITUTED OXAZOLIDINONES AND IMIDAZOLINONES AS HERBICIDES” (FMC CORPORATION, priority 2023, published 2026)

Experiments:
Assay type in all cases: in vivo
[1] = test system: palmer (palmer amaranth, palmer pigweed, Amaranthus palmeri); experiment: Test A preemergence soil spray, visual injury rating 0-100; conditions: 10 days, 0 = no effect, 100 = complete control
Procedure, shortened: (§1)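 Grow plants in loam soil blended with sand. Apply formulated compound (non-phytotoxic solvent, surfactant) as a directed soil spray before emergence, or to plants at the one- to two-leaf stage after emergence. Hold in greenhouse 10 days, then rate injury visually versus untreated controls on a 0-100 scale.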

[2] = test system: kochia (Bassia scoparia); experiment: as above; conditions: 10 days, 0 = no effect, 100 = complete control
Procedure, shortened: as §1

[3] = test system: corn (Zea mays); experiment: as above; conditions: 10 days, 0 = no effect, 100 = complete control
Procedure, shortened: as §1

[4] = test system: soybean (Glycine max); experiment: as above; conditions: 10 days, 0 = no effect, 100 = complete control
Procedure, shortened: as §1

[5] = test system: ragweed (common ragweed, Ambrosia artemisiifolia); experiment: as above; conditions: 10 days, 0 = no effect, 100 = complete control
Procedure, shortened: as §1

[6] = test system: barnyardgrass (Echinochloa crus-galli); experiment: as above; conditions: 10 days, 0 = no effect, 100 = complete control
Procedure, shortened: as §1

[7] = test system: wheat (Triticum aestivum); experiment: as above; conditions: 10 days, 0 = no effect, 100 = complete control
Procedure, shortened: as §1

[8] = test system: oat, wild (wild oat, Avena fatua); experiment: as above; conditions: 10 days, 0 = no effect, 100 = complete control
Procedure, shortened: as §1

[9] = test system: blackgrass (Alopecurus myosuroides); experiment: as above; conditions: 10 days, 0 = no effect, 100 = complete control
Procedure, shortened: as §1

[10] = test system: ryegrass, Italian (italian ryegrass, Lolium multiflorum); experiment: as above; conditions: 10 days, 0 = no effect, 100 = complete control
Procedure, shortened: as §1

[11] = test system: rice (Oryza sativa); experiment: Test B flooded paddy test, visual plant response rating 0-100; conditions: 250 g ai/ha, Flood, applied to paddy water, evaluated after 13 days
Procedure, shortened: (§2)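 Each species was raised to two leaves before flooding to a 3 cm depth and dosing the water with compound. Injury was assessed by eye after 13 days under greenhouse conditions.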

[12] = test system: sedge, umbrella (small-flower umbrella sedge, Cyperus difformis); experiment: as above; conditions: 250 g ai/ha, Flood, applied to paddy water, evaluated after 13 days
Procedure, shortened: as §2

[13] = test system: barnyardgrass (Echinochloa crusgalli); experiment: as above; conditions: 250 g ai/ha, Flood, applied to paddy water, evaluated after 13 days
Procedure, shortened: as §2

[14] = test system: ducksalad (Heteranthera limosa); experiment: as above; conditions: 250 g ai/ha, Flood, applied to paddy water, evaluated after 13 days
Procedure, shortened: as §2

[15] = test system: palmer (palmer amaranth, palmer pigweed, Amaranthus palmeri); experiment: Test A postemergence application, visual injury rating 0-100; conditions: Postemergence
Procedure, shortened: as §1

[16] = test system: kochia (Bassia scoparia); experiment: as above; conditions: Postemergence
Procedure, shortened: as §1

[17] = test system: corn (Zea mays); experiment: as above; conditions: Postemergence
Procedure, shortened: as §1

[18] = test system: galium (catchweed bedstraw, Galium aparine); experiment: as above; conditions: Postemergence
Procedure, shortened: as §1

[19] = test system: soybean (Glycine max); experiment: as above; conditions: Postemergence
Procedure, shortened: as §1

[20] = test system: ragweed (common ragweed, Ambrosia artemisiifolia); experiment: as above; conditions: Postemergence
Procedure, shortened: as §1

[21] = test system: horseweed (Erigeron canadensis); experiment: as above; conditions: Postemergence
Procedure, shortened: as §1

[22] = test system: barnyardgrass (Echinochloa crus-galli); experiment: as above; conditions: Postemergence
Procedure, shortened: as §1

[23] = test system: wheat (Triticum aestivum); experiment: as above; conditions: Postemergence
Procedure, shortened: as §1

[24] = test system: oat, wild (wild oat, Avena fatua); experiment: as above; conditions: Postemergence
Procedure, shortened: as §1

[25] = test system: blackgrass (Alopecurus myosuroides); experiment: as above; conditions: Postemergence
Procedure, shortened: as §1

[26] = test system: ryegrass, Italian (italian ryegrass, Lolium multiflorum); experiment: as above; conditions: Postemergence
Procedure, shortened: as §1

[27] = 31 g ai/ha, greenhouse 10 days, 0 no effect, 100 complete control
[28] = 125 g ai/ha, 10 days, 0 is no effect, 100 is complete control

CC1(C(=O)NC2CC=C(C(=O)OCC(F)(F)F)C2)CN(c2cc(Cl)cc(Cl)c2)C(=O)O1 (stereo not drawn) [Compound 71]
Amaranth, Palmer plant response rating (0-100) ([1]; 31 g ai/ha): 90
Amaranth, Palmer plant response rating (0 to 100 scale) ([1]; 125 g ai/ha): 100
Kochia plant response rating (0-100) ([2]; 31 g ai/ha): 70
Kochia plant response rating (0 to 100 scale) ([2]; 125 g ai/ha): 90
Corn plant response rating (0-100) ([3]; 31 g ai/ha): 30
Corn plant response rating (0 to 100 scale) ([3]; 125 g ai/ha): 50
Soybean plant response rating (0-100) ([4]; 31 g ai/ha): 10
Soybean plant response rating (0 to 100 scale) ([4]; 125 g ai/ha): 70
Ragweed plant response rating (0-100) ([5]; 31 g ai/ha): 0
Ragweed plant response rating (0 to 100 scale) ([5]; 125 g ai/ha): 30
Barnyardgrass plant response rating (0-100) ([6]; 31 g ai/ha): 50
Barnyardgrass plant response rating (0 to 100 scale) ([6]; 125 g ai/ha): 90
Wheat plant response rating (0-100) ([7]; 31 g ai/ha): 60
Wheat plant response rating (0 to 100 scale) ([7]; 125 g ai/ha): 90
Oat, Wild plant response rating (0-100) ([8]; 31 g ai/ha): 20
Oat, Wild plant response rating (0 to 100 scale) ([8]; 125 g ai/ha): 30
Blackgrass plant response rating (0-100) ([9]; 31 g ai/ha): 0
Blackgrass plant response rating (0 to 100 scale) ([9]; 125 g ai/ha): 50
Ryegrass, Italian plant response rating (0-100) ([10]; 31 g ai/ha): 40
Ryegrass, Italian plant response rating (0 to 100 scale) ([10]; 125 g ai/ha): 70
Plant response rating, Rice (0 to 100 scale, 0 is no effect and 100 is complete control) [11]: 85
Plant response rating, Sedge, Umbrella (0 to 100 scale, 0 is no effect and 100 is complete control) [12]: 100
Plant response rating, Barnyardgrass (0 to 100 scale, 0 is no effect and 100 is complete control) [13]: 80
Plant response rating, Ducksalad (0 to 100 scale, 0 is no effect and 100 is complete control) [14]: 70
Amaranth, Palmer / Pigweed, Palmer plant response rating (0 to 100 scale) [15, 27]: 90
Amaranth, Palmer / Pigweed, Palmer plant response rating (0 to 100 scale) [15, 28]: 90
Kochia plant response rating (0 to 100 scale) [16, 27]: 80
Kochia plant response rating (0 to 100 scale) [16, 28]: 90
Corn plant response rating (0 to 100 scale) [17, 27]: 100
Corn plant response rating (0 to 100 scale) [17, 28]: 100
Galium plant response rating (0 to 100 scale) [18, 27]: 80
Galium plant response rating (0 to 100 scale) [18, 28]: 80
Soybean plant response rating (0 to 100 scale) [19, 27]: 70
Soybean plant response rating (0 to 100 scale) [19, 28]: 90
Ragweed plant response rating (0 to 100 scale) [20, 27]: 60
Ragweed plant response rating (0 to 100 scale) [20, 28]: 60
Horseweed plant response rating (0 to 100 scale) [21, 27]: 10
Horseweed plant response rating (0 to 100 scale) [21, 28]: 70
Barnyardgrass plant response rating (0 to 100 scale) [22, 27]: 90
Barnyardgrass plant response rating (0 to 100 scale) [22, 28]: 90
Wheat plant response rating (0 to 100 scale) [23, 27]: 80
Wheat plant response rating (0 to 100 scale) [23, 28]: 90
Oat, Wild plant response rating (0 to 100 scale) [24, 27]: 40
Oat, Wild plant response rating (0 to 100 scale) [24, 28]: 90
Blackgrass plant response rating (0 to 100 scale) [25, 27]: 80
Blackgrass plant response rating (0 to 100 scale) [25, 28]: 90
Ryegrass, Italian plant response rating (0 to 100 scale) [26, 27]: 60
Ryegrass, Italian plant response rating (0 to 100 scale) [26, 28]: 70
